Data published in ChEMBL document CHEMBL4732026, “Benzimidazole-1,2,3-triazole hybrid molecules: synthesis and study of their interaction with G-quadruplex DNA” (RSC Med Chem, 2021).
Activity calls are given as the source filed them. The calls are words filed in the database; no cut-off is given here.

Key:
dsDNA [1] = assay: Binding affinity to double strand DNA (unknown origin) assessed as hyperchromicity at 10.3 uM incubated for 5 mins by UV- vis spectrophotometric analysis; assay type: nucleic-acid assay
Quadruplex DNA [2] = assay: Binding affinity to Tel Q G-quadruplex DNA (unknown origin) assessed as increase in fluorescence intensity at 10.3 uM incubated for 5 mins by spectrofluorometric analysis; assay type: nucleic-acid assay
Quadruplex DNA [3] = assay: Binding affinity to c-Myc G-quadruplex DNA (unknown origin) assessed as hyperchromicity at 10.3 uM incubated for 5 mins by UV- vis spectrophotometric analysis; assay type: nucleic-acid assay
CHO-K1 [4] = assay: Cytotoxicity against […] cells assessed as reduction in cell viability measured after 72 hrs by MTT assay; assay type: cell-based; conditions: Cricetulus griseus, CHO-K1, 72 h
Quadruplex DNA [5] = assay: Binding affinity to Tel Q G-quadruplex DNA (unknown origin) assessed as hypsochromic shift at 10.3 uM incubated for 5 mins by UV- vis spectrophotometric analysis; assay type: nucleic-acid assay
dsDNA [6] = assay: Binding affinity to double strand DNA (unknown origin) assessed as hypsochromic shift at 10.3 uM incubated for 5 mins by UV- vis spectrophotometric analysis; assay type: nucleic-acid assay
Quadruplex DNA [7] = assay: Binding affinity to Tel Q G-quadruplex DNA (unknown origin) assessed as increase in fluorescence intensity at 8.5 uM incubated for 5 mins by spectrofluorometric analysis; assay type: nucleic-acid assay
Quadruplex DNA [8] = assay: Binding affinity to c-Myc G-quadruplex DNA (unknown origin) assessed as dissociation constant incubated for 5 mins by UV- vis spectrophotometric analysis; assay type: nucleic-acid assay
Quadruplex DNA [9] = assay: Stabilization of c-Myc G-quadruplex DNA (unknown origin) assessed as change in melting temperature at 10.3 uM incubated for 5 mins by UV-visible thermal denaturation study; assay type: nucleic-acid assay
PC-3 [10] = assay: Cytotoxicity against human PC3 cells assessed as reduction in cell viability measured after 72 hrs by MTT assay; assay type: functional, cell-based; conditions: PC-3, 72 h
Quadruplex DNA [11] = assay: Binding affinity to Tel Q G-quadruplex DNA (unknown origin) assessed as hyperchromicity at 10.3 uM incubated for 5 mins by UV- vis spectrophotometric analysis; assay type: nucleic-acid assay
Quadruplex DNA [12] = assay: Binding affinity to c-Myc G-quadruplex DNA (unknown origin) assessed as hypsochromic shift at 10.3 uM incubated for 5 mins by UV- vis spectrophotometric analysis; assay type: nucleic-acid assay
dsDNA [13] = assay: Binding affinity to double strand DNA (unknown origin) assessed as dissociation constant incubated for 5 mins by UV- vis spectrophotometric analysis; assay type: nucleic-acid assay
Quadruplex DNA [14] = assay: Stabilization of Tel Q G-quadruplex DNA (unknown origin) assessed as change in melting temperature at 10.3 uM incubated for 5 mins by UV-visible thermal denaturation study; assay type: nucleic-acid assay
dsDNA [15] = assay: Binding affinity to double strand DNA (unknown origin) assessed as increase in fluorescence intensity at 10.3 uM incubated for 5 mins by spectrofluorometric analysis; assay type: nucleic-acid assay
B16-F10 = assay: Cytotoxicity against mouse B16-F10 cells assessed as reduction in cell viability measured after 72 hrs by MTT assay; assay type: functional, cell-based; conditions: B16-F10, 72 h
dsDNA [16] = assay: Stabilization of double strand DNA (unknown origin) assessed as change in melting temperature at 10.3 uM incubated for 5 mins by UV-visible thermal denaturation study; assay type: nucleic-acid assay
dsDNA [17] = assay: Binding affinity to double strand DNA (unknown origin) assessed as increase in fluorescence intensity at 8.5 uM incubated for 5 mins by spectrofluorometric analysis; assay type: nucleic-acid assay
Quadruplex DNA [18] = assay: Binding affinity to Tel Q G-quadruplex DNA (unknown origin) assessed as dissociation constant incubated for 5 mins by UV- vis spectrophotometric analysis; assay type: nucleic-acid assay
Quadruplex DNA [19] = assay: Binding affinity to c-Myc G-quadruplex DNA (unknown origin) assessed as increase in fluorescence intensity at 8.5 uM incubated for 5 mins by spectrofluorometric analysis; assay type: nucleic-acid assay
Quadruplex DNA [20] = assay: Binding affinity to c-Myc G-quadruplex DNA (unknown origin) assessed as increase in fluorescence intensity at 10.3 uM incubated for 5 mins by spectrofluorometric analysis; assay type: nucleic-acid assay
CHO-K1 [21] = assay: Induction of apoptosis in CHO-K1 cells assessed as apoptic cells at 60 uM after 48 hrs by Annexin V based flow cytometric analysis (reference value: 6.29%); assay type: cell-based, Cricetulus griseus; conditions: chinese hamster, cho-k1, 48 h
PC-3 [22] = assay: Induction of apoptosis in human PC-3 cells assessed as apoptotic cells at 98 uM incubated for 48 hrs by AnnexinV based flow cytometric analysis (reference value: 10.43%); assay type: functional
PC-3 [23] = assay: Induction of apoptosis in human PC-3 cells assessed as necrotic cells at 98 uM after 48 hrs by Annexin V based flow cytometric analysis (reference value: 0.79%); assay type: functional
PC-3 [24] = assay: Induction of apoptosis in human PC-3 cells assessed as necrotic cells at 91 uM after 48 hrs by Annexin V based flow cytometric analysis (reference value: 0.79%); assay type: functional
CHO-K1 [25] = assay: Induction of reactive oxygen species generation in CHO-K1 cells after 48 hrs by DCFH-DA staining based flow cytometeric analysis; assay type: cell-based, Cricetulus griseus; conditions: chinese hamster, cho-k1, 48 h
CHO-K1 [26] = assay: Induction of apoptosis in CHO-K1 cells assessed as apoptic cells at 63 uM after 48 hrs by Annexin V based flow cytometric analysis (reference value: 6.29%); assay type: cell-based, Cricetulus griseus; conditions: chinese hamster, cho-k1, 48 h
PC-3 [27] = assay: Induction of apoptosis in human PC-3 cells assessed as late apoptic cells at 98 uM after 48 hrs by Annexin V based flow cytometric analysis (reference value: 9.24%); assay type: functional
PC-3 [28] = assay: Induction of apoptosis in human PC-3 cells assessed as early apoptic cells at 98 uM after 48 hrs by Annexin V based flow cytometric analysis (reference value: 0.40%); assay type: functional
CHO-K1 [29] = assay: Induction of apoptosis in CHO-K1 cells assessed as early apoptic cells at 60 uM after 48 hrs by Annexin V based flow cytometric analysis (reference value: 4.58%); assay type: cell-based, Cricetulus griseus; conditions: chinese hamster, cho-k1, 48 h
PC-3 [30] = assay: Induction of apoptosis in human PC-3 cells assessed as viable cells at 98 uM after 48 hrs by Annexin V based flow cytometric analysis (reference value: 89.57%); assay type: functional; conditions: read-out: Activity
PC-3 [31] = assay: Induction of apoptosis in human PC-3 cells assessed as early apoptic cells at 91 uM after 48 hrs by Annexin V based flow cytometric analysis (reference value: 0.40%); assay type: functional
PC-3 [32] = assay: Induction of apoptosis in human PC-3 cells assessed as viable cells at 91 uM after 48 hrs by Annexin V based flow cytometric analysis (reference value: 89.57%); assay type: functional; conditions: read-out: Activity
PC-3 [33] = assay: Induction of apoptosis in human PC-3 cells assessed as apoptotic cells at 91 uM incubated for 48 hrs by AnnexinV based flow cytometric analysis (reference value: 10.43%); assay type: functional
PC-3 [34] = assay: Induction of apoptosis in human PC-3 cells assessed as late apoptic cells at 91 uM after 48 hrs by Annexin V based flow cytometric analysis (reference value: 9.24%); assay type: functional
CHO-K1 [35] = assay: Induction of apoptosis in CHO-K1 cells assessed as early apoptic cells at 63 uM after 48 hrs by Annexin V based flow cytometric analysis (reference value: 4.58%); assay type: cell-based, Cricetulus griseus; conditions: chinese hamster, cho-k1, 48 h
[36] = Induction of apoptosis in CHO-K1 cells assessed as viable cells at 60 uM after 48 hrs by Annexin V based flow cytometric analysis (reference value: 93.71%); assay type: cell-based, Cricetulus griseus; conditions: chinese hamster, read-out: Activity
CHO-K1 [37] = assay: Induction of apoptosis in CHO-K1 cells assessed as necrotic cells at 60 uM after 48 hrs by Annexin V based flow cytometric analysis (reference value: 0.70%); assay type: cell-based, Cricetulus griseus; conditions: chinese hamster, cho-k1, 48 h
CHO-K1 [38] = assay: Induction of apoptosis in CHO-K1 cells assessed as late apoptic cells at 63 uM after 48 hrs by Annexin V based flow cytometric analysis (reference value: 1.01%); assay type: cell-based, Cricetulus griseus; conditions: chinese hamster, cho-k1, 48 h
[39] = Induction of apoptosis in CHO-K1 cells assessed as viable cells at 63 uM after 48 hrs by Annexin V based flow cytometric analysis (reference value: 93.71%); assay type: cell-based, Cricetulus griseus; conditions: chinese hamster, read-out: Activity
CHO-K1 [40] = assay: Induction of apoptosis in CHO-K1 cells assessed as late apoptic cells at 60 uM after 48 hrs by Annexin V based flow cytometric analysis (reference value: 1.01%); assay type: cell-based, Cricetulus griseus; conditions: chinese hamster, cho-k1, 48 h
CHO-K1 [41] = assay: Induction of apoptosis in CHO-K1 cells assessed as necrotic cells at 63 uM after 48 hrs by Annexin V based flow cytometric analysis (reference value: 0.70%); assay type: cell-based, Cricetulus griseus; conditions: chinese hamster, cho-k1, 48 h

With O=[N+]([O-])c1ccc(-n2cc(CSc3nc4cc(OC(F)F)ccc4[nH]3)nn2)cc1 the Activity (dsDNA [1]) was 15.9%, the Activity (Quadruplex DNA [2]) was “Active” and the Activity (Quadruplex DNA [3]) was 11.7%. The IC50 (CHO-K1 [4]) was 100 µM, the Activity (Quadruplex DNA [5]) was 2.9 nm and the Activity (dsDNA [6]) was 1.6 nm. For the same compound, the Activity (Quadruplex DNA [7]) was “Active”, the Kd (Quadruplex DNA [8]) was 79.2 µM and the ΔTm (Quadruplex DNA [9]) was -5 °C. It also gave an IC50 (PC-3 [10]) of 59.2 µM, an Activity (Quadruplex DNA [11]) of 31.4% and an Activity (Quadruplex DNA [12]) of 0.6 nm. The Kd (dsDNA [13]) was 191 µM, the ΔTm (Quadruplex DNA [14]) was 9 °C and the Activity (dsDNA [15]) was “Active”. For the same compound, the IC50 (B16-F10) was 203 µM, the ΔTm (dsDNA [16]) was 0 °C and the Activity (dsDNA [17]) was “Active”. The Kd (Quadruplex DNA [18]) was 87.3 µM, the Activity (Quadruplex DNA [19]) was “Active” and the Activity (Quadruplex DNA [20]) was “Active”.
In the case of Cc1c(NC(=O)Cn2cc(CSc3nc4cc(OC(F)F)ccc4[nH]3)nn2)cccc1[N+](=O)[O-], the IC50 (CHO-K1 [4]) is reported as 62.2 µM, the IC50 (PC-3 [10]) is reported as 66.2 µM and the IC50 (B16-F10) is reported as 103 µM.
C[n+]1ccc(-c2c3nc(c(-c4cc[n+](C)cc4)c4ccc([nH]4)c(-c4cc[n+](C)cc4)c4ccc([nH]4)c(-c4cc[n+](C)cc4)c4nc2C=C4)C=C3)cc1 [TMPYP4] gave an Activity (CHO-K1 [21]) of 18.06%, an Activity (PC-3 [22]) of 48.7% and an IC50 (CHO-K1 [4]) of 61.4 µM. For the same compound, the Activity (PC-3 [23]) was 14.36%, the Activity (PC-3 [24]) was 2.38% and the IC50 (PC-3 [10]) was 94.8 µM. The Activity (CHO-K1 [25]) was “Non-Toxic”, the Activity (CHO-K1 [26]) was 24.84% and the Activity (PC-3 [27]) was 33.44%. It also gave an Activity (PC-3 [28]) of 0.9%, an Activity (CHO-K1 [29]) of 13.72% and a viability at 98 µM (PC-3 [30]) of 51.3%. The IC50 (B16-F10) was 77 µM, the Activity (PC-3 [31]) was 4.41% and the viability at 91 µM (PC-3 [32]) was 75.2%. For the same compound, the Activity (PC-3 [33]) was 24.8%, the Activity (PC-3 [34]) was 18.01% and the Activity (CHO-K1 [35]) was 18.87%. It also gave a viability at 48 h, 60 µM [36] of 81.9%, an Activity (CHO-K1 [37]) of 0.95% and an Activity (CHO-K1 [38]) of 4.66%. For the same compound, the viability at 48 h, 63 µM [39] was 75.2%, the Activity (CHO-K1 [40]) was 3.39% and the Activity (CHO-K1 [41]) was 1.31%.
For O=C(Cn1cc(CSc2nc3cc(OC(F)F)ccc3[nH]2)nn1)Nc1cccc(Cl)c1, the IC50 (CHO-K1 [4]) was 115 µM, the IC50 (PC-3 [10]) was 136 µM and the IC50 (B16-F10) was 135 µM.
Work on Fc1ccc(-n2cc(CSc3nc4cc(OC(F)F)ccc4[nH]3)nn2)cc1F yielded an IC50 (CHO-K1 [4]) of 56.1 µM, an IC50 (PC-3 [10]) of 65.2 µM and an IC50 (B16-F10) of 56.8 µM.
For FC(F)Oc1ccc2[nH]c(SCc3cn(-c4cccc(Cl)c4Cl)nn3)nc2c1, the IC50 (CHO-K1 [4]) was 85 µM, the IC50 (PC-3 [10]) was 69.8 µM and the IC50 (B16-F10) was 90.5 µM.
